Laboratory results reported in paper PMC10313808, “Lipoxygenase inhibitory synthetic derivatives of methyl gallate regulate gene expressions of COX-2 and cytokines to reduce animal model arthritis” (Scientific Reports, 2023).
Where two headings read alike, the source gives them in different places. Marks after values point to notes of the source that are not given here.

Key:
FCA-induced arthritis [1] = settings: for ALP / SGOT / SGPT: FCA rats, serum; for liver damage: rat, in vivo
Protocol: (§1) Chronic inflammation induced by Freund's Complete Adjuvant contains a suspension of heat-killed Mycobacterium tuberculosis in the vehicle (Chondrex, Labex Corporation). 100 μL of FCA (10 mg/mL) was injected intradermally to the left-hand paw of SD rats[42]. […] Induction of inflammation became chronic by 9–12 days and then rats were divided into 7 groups having 6 rats in each group. Everything possible was done to minimize the suffering of experimental animals. Minimum number of rats only were drafted to generate reliable data. 42 rats were randomly allocated into seven groups (6 × 7).
(§2) Group I (n = 6) served as normal rats that received an equal volume of vehicle control. Group II (n = 6) was arthritic model control treated with vehicle only. Group III (n = 6) was arthritic control which received the diclofenac (10 mg.kg^–1). Groups IV (n = 6), V (n = 6), VI (n = 6) and VII (n = 6) were treated with a low and high dose of methyl gallate (20 mg.kg^–1, 40 mg.kg^–1) and MGSD 1 (1 mg.kg^–1, 10 mg.kg^–1). The drugs were orally administered through oral gavage daily in PBS vehicle for 28 days.
(§3) Blood was drawn from jugular vein[43] and collected in heparinized tubes and used for further analysis. By using Horiba 5-part hematology analyzer the blood parameters like RBC, WBC, neutrophil and hemoglobin were analyzed. Serum parameters were analyzed using Stat Fax autoanalyzer. Serum glutamic pyruvic transaminase (SGPT), serum glutamic oxaloacetic transaminase (SGOT) and alkaline phosphatase (ALP) were determined using standard diagnostic kits (Proton, Accurex).

[2] = tested on: ankle joints, liver, spleen, and thymus; assay: FCA-induced arthritis: histological analysis; assay type: in vivo, Sprague–Dawley (SD) rats; settings: FCA rats; for Histology of liver / Histology of spleen: dose not stated; for Histology of thymus: methyl gallate high dose
Protocol: The animals used for the FCA induced arthritis were euthanized at the end of the experiment and the ankle joints were separated from the hind paw and fixed in 10% buffered formalin. Similarly, liver, spleen, and thymus were also dissected carefully and immersed in fixative, and after 24 h each specimen were decalcified in 5% nitric acid, followed by embedding in paraffin wax and 4 µm thickness sections were prepared. These prepared sections were then mounted and stained with hematoxylin and[…] under brightfield compound binocular research microscope at 100X and 400X magnification and inflammation was graded.

[3] = FCA-induced arthritis: body weight measurement; assay type: in vivo, Sprague–Dawley (SD) rats; settings: FCA rats
Protocol: as §1, §2
The bodyweight of the animals was measured every day after the commencement of the experiment till the end (28th day). The weight change was calculated using the formula: Weightchange%=Wt-Wo/[…], where Wt is the weight of the animal at time t
Wo is the weight of the animal on the initial day.

FCA-induced arthritis [4] = assay: FCA-induced arthritis: organ index (liver, spleen); assay type: in vivo, Sprague–Dawley (SD) rats; settings: FCA rats, end of experiment
Protocol: as §1, §2
At the end of the experiments, animals were euthanized using ketamine injection. The liver and spleen were removed at the end of the experiment and weighed. The index of the organs was expressed as the percentage (%) wet weight of organ versus body weight. The organ indexes were calculated by using the following formula Organindex=Weightoforgang/Bodyweightg×100.

FCA-induced arthritis [5] = assay: FCA-induced arthritis: haematological parameters; assay type: in vivo, Sprague–Dawley (SD) rats; settings: FCA rats
Protocol: as §1, §2, §3

COX-2 = assay: RT-PCR gene expression in hind paw tissue, COX-2; assay type: in vivo, Sprague–Dawley (SD) rats; settings: normalized to GAPDH, vs arthritic control
Protocol: This study aimed to gain insight into the mechanism by which methyl gallate and its derivative influence the chronic inflammatory condition in the rat model. In the present study, the inflammatory pathway genes were identified, and their relative expression was quantified (COX-2 and TNF α). RNA was isolated from the hind paw tissue of rats and its concentration was analyzed through Qubit fluorometer. RNA was isolated by Trizol method and agarose gel electrophoresis performed. After the isolation protocol, complementary DNA was synthesized and followed the quantitative PCR with standard conditions. Primers of the targets were designed in Primer3Plus and primer validation was carried out. PCR annealing temperatures were standardized to amplify the specific genes. All the primer pairs were highly specific and resolved into single bands corresponding to amplification products of expected size on 2% agarose gel electrophoresis. Primer specificity was further confirmed by a single distinct peak on the melt curve. The specificity of primer pairs ensures the sequence quality of respective gene templates.
The relative expression of inflammatory genes was identified through quantitative RT-PCR. […] The concentration of RNA isolated was measured in the Qubit fluorometer with the RNA HS assay kit. cDNA was synthesized by reverse transcription using total RNA (2 μg) as a template. […]

O=C(O)COc1cc(C(=O)O)cc(OCC(=O)O)c1OCC(=O)O [MGSD 1, 2,2′,2″-((5-carboxybenzene-1,2,3-triyl)tris(oxy)) tri acetic acid]
ALP (FCA-induced arthritis [1]; 1 mg.kg^−1 oral): 435 ± 72.16
SGOT (FCA-induced arthritis [1]; 1 mg.kg^−1 oral): 162 ± 7.57 IU/L
SGPT (FCA-induced arthritis [1]; 1 mg.kg^−1 oral): 85 ± 2.60 IU/L
ALP (FCA-induced arthritis [1]; 10 mg.kg^−1 oral): 309 ± 54.42
SGOT (FCA-induced arthritis [1]; 10 mg.kg^−1 oral): 179 ± 3.52 IU/L
SGPT (FCA-induced arthritis [1]; 10 mg.kg^−1 oral): 82 ± 1.73 IU/L
liver damage (FCA-induced arthritis [1]): did not show any liver damage
Histology of ankle joints ([2]; 10 mg.kg^-1): reduced oedema formation and neutrophil infiltration was found very low
Histology of liver [2]: central sinusoid visible and hepatic array of cells normal
Histology of spleen [2]: more efficient in controlling the inflammatory response than methyl gallate and diclofenac
Histology of thymus [2]: more effective than the parent compound in reverting inflammation-based T-Cell proliferation
Percentage of body weight (Mean ± SEM) 9th day ([3]; 1 mg.kg^−1 oral): 13.40 ± 0.26 %
Percentage of body weight (Mean ± SEM) 18th day ([3]; 1 mg.kg^−1 oral): 25.99 ± 51 %
Percentage of body weight (Mean ± SEM) 28th day ([3]; 1 mg.kg^−1 oral): 40.15 ± 0.00 %
Percentage of body weight (Mean ± SEM) 9th day ([3]; 10 mg.kg^−1 oral): 14.47 ± 1.13 %
Percentage of body weight (Mean ± SEM) 18th day ([3]; 10 mg.kg^−1 oral): 30.20 ± 1.57 %
Percentage of body weight (Mean ± SEM) 28th day ([3]; 10 mg.kg^−1 oral): 38.44 ± 1.81 %
Organ index (%) Liver (FCA-induced arthritis [4]; 1 mg.kg^−1 oral): 3.21 ± 0.12%
Organ index (%) Spleen (FCA-induced arthritis [4]; 1 mg.kg^−1 oral): 0.24 ± 0.00%
Organ index (%) Liver (FCA-induced arthritis [4]; 10 mg.kg^−1 oral): 3.18 ± 0.48%
Organ index (%) Spleen (FCA-induced arthritis [4]; 10 mg.kg^−1 oral): 0.22 ± 0.00%
Hb (FCA-induced arthritis [5]; 1 mg.kg^−1 oral): 14.8 ± 0.42 g/dL
Lymphocyte (FCA-induced arthritis [5]; 1 mg.kg^−1 oral): 75.8 ± 0.21%
Neutro phil (FCA-induced arthritis [5]; 1 mg.kg^−1 oral): 11.6 ± 0.76%
RBC (FCA-induced arthritis [5]; 1 mg.kg^−1 oral): 6.93 ± 0.18^# 10^6/mm^3
WBC (FCA-induced arthritis [5]; 1 mg.kg^−1 oral): 9.3 ± 0.48^# 10^3/mm^3
Hb (FCA-induced arthritis [5]; 10 mg.kg^−1 oral): 14.2 ± 0.26 g/dL
Lymphocyte (FCA-induced arthritis [5]; 10 mg.kg^−1 oral): 75.9 ± 3.44%
Neutro phil (FCA-induced arthritis [5]; 10 mg.kg^−1 oral): 13.4 ± 0.23%
RBC (FCA-induced arthritis [5]; 10 mg.kg^−1 oral): 7.075 ± 0.37^# 10^6/mm^3
WBC (FCA-induced arthritis [5]; 10 mg.kg^−1 oral): 8.45 ± 0.98* 10^3/mm^3
COX-2 gene expression (COX-2): significant down regulation of COX-2

COC(=O)c1cc(O)c(O)c(O)c1 [Methyl gallate]
SGOT (FCA-induced arthritis [1]; 20 mg.kg^−1 oral): 243 ± 13.28 IU/L
SGPT (FCA-induced arthritis [1]; 20 mg.kg^−1 oral): 94 ± 3.17 IU/L
SGOT (FCA-induced arthritis [1]; 40 mg.kg^−1 oral): 183 ± 6.38 IU/L
SGPT (FCA-induced arthritis [1]; 40 mg.kg^−1 oral): 102 ± 2.18 IU/L
liver damage (FCA-induced arthritis [1]): did not show any liver damage
Histology of ankle joints ([2]; 40 mg.kg^-1): synovial space with neutrophil infiltration, although much less than that of arthritic control
Histology of liver [2]: hepatocyte arrays and central sinusoid area were seen to regain normalcy and a few necrotic cells were still visible
Histology of spleen [2]: lesser degree of spleen reversion
Histology of thymus [2]: effective in controlling inflammation-based T-Cell proliferation
Percentage of body weight (Mean ± SEM) 9th day ([3]; 20 mg.kg^−1 oral): 9.43 ± 0.84%
Percentage of body weight (Mean ± SEM) 18th day ([3]; 20 mg.kg^−1 oral): 23.61 ± 0.65%
Percentage of body weight (Mean ± SEM) 28th day ([3]; 20 mg.kg^−1 oral): 34.17 ± 0.23 %
Percentage of body weight (Mean ± SEM) 9th day ([3]; 40 mg.kg^−1 oral): 10.34 ± 0.52%
Percentage of body weight (Mean ± SEM) 18th day ([3]; 40 mg.kg^−1 oral): 22.42 ± 0.28%
Percentage of body weight (Mean ± SEM) 28th day ([3]; 40 mg.kg^−1 oral): 30.99 ± 0.23 %
Organ index (%) Liver (FCA-induced arthritis [4]; 20 mg.kg^−1 oral): 3.59 ± 0.03 %
Organ index (%) Spleen (FCA-induced arthritis [4]; 20 mg.kg^−1 oral): 0.27 ± 0.01%
Organ index (%) Liver (FCA-induced arthritis [4]; 40 mg.kg^−1 oral): 3.63 ± 0.11 %
Organ index (%) Spleen (FCA-induced arthritis [4]; 40 mg.kg^−1 oral): 0.28 ± 0.02%
Hb (FCA-induced arthritis [5]; 20 mg.kg^−1 oral): 14.2 ± 0.65 g/dL
Lymphocyte (FCA-induced arthritis [5]; 20 mg.kg^−1 oral): 79 ± 0.79%
Neutro phil (FCA-induced arthritis [5]; 20 mg.kg^−1 oral): 11.7 ± 0.25%
RBC (FCA-induced arthritis [5]; 20 mg.kg^−1 oral): 7.47 ± 0.32^# 10^6/mm^3
WBC (FCA-induced arthritis [5]; 20 mg.kg^−1 oral): 8.3 ± 0.6 10^3/mm^3
Hb (FCA-induced arthritis [5]; 40 mg.kg^−1 oral): 14.4 ± 0.74 g/dL
Lymphocyte (FCA-induced arthritis [5]; 40 mg.kg^−1 oral): 78.6 ± 1.85%
Neutro phil (FCA-induced arthritis [5]; 40 mg.kg^−1 oral): 12.8 ± 0.4%
RBC (FCA-induced arthritis [5]; 40 mg.kg^−1 oral): 7.87 ± 0.34^# 10^6/mm^3
WBC (FCA-induced arthritis [5]; 40 mg.kg^−1 oral): 11.25 ± 0.62^# 10^3/mm^3
COX-2 gene expression (COX-2): significant down regulation of COX-2
